The values below are quoted from earlier work in patent publication US20120135104A1, “Enhanced Absorption of Omega Fatty Acid Oils” (priority 2010, published 2012).

The conditions of this data set: single emulsifier.

With polyoxyethylene sorbitan monooleate, the HLB value entry is recorded as “about 15”.
